# Assay results: patent US10351547B2, “Somatostatin modulators and uses thereof” (priority 2016, dated 2019)
# Like-named read-outs stand apart in the source and are kept apart here.
# Target: human SSTR2 (Homo sapiens (Human), UniProt P30874)
# Assay: Human SSTR2 intracellular cAMP functional assay for agonists (HTRF)
# Format: cell-based
# Method: Functional Assay for SSTR2 Agonists
# General overview: All five SSTR subtypes are Gi coupled G-protein coupled receptors (GPCRs) that lead to decreases in intracellular cyclic AMP (cAMP) when activated by an agonist. […] Human SSTR2 intracellular cAMP assay is described below. The human SSTR1, 3, 4 and 5 assays follow the same protocol of SSTR2.
# The cells are cultured at 37° C., 5% CO2 and 95% humidity. […] The cells are incubated for 20 minutes at 37° C. […] The cells are treated with 50 μL of lysis buffer (HRTF cAMP kit, Cisbio). […] The time-resolved fluorescent signal is read with a Tecan M1000Pro multiplate reader. The intracellular cAMP concentrations are calculated by regression to a standard curve and are plotted vs. the concentration of the compounds of the invention and the EC50 of the compounds are calculated using standard methods. All data manipulations are in GraphPad Prism v6.
# [1] = CHO-K1 cells stably expressing human SSTR2, NKH477-stimulated cAMP, read-out: EC50 (inhibition of cAMP activities via human SST2R)
# human SSTR2, sequence (P30874 whole entry): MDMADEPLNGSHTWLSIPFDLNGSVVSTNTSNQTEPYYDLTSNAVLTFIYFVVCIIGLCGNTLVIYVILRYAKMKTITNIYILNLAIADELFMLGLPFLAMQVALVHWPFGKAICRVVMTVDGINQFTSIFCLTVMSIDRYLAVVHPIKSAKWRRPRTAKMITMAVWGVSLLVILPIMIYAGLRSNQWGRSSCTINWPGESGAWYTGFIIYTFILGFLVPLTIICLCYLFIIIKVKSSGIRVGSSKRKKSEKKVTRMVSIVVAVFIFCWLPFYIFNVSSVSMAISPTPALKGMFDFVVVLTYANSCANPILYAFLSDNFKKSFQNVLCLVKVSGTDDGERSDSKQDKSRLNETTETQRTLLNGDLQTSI
Compound,EC50 [1],EC50
"Cc1cc(Cl)cc(-c2nnc3ccc(-c4cccc(F)c4O)cc3c2N2CCC(N)CC2)c1 [1-29, 2-[4-(4-aminopiperidin-1-yl)-3-(3-chloro-5-methylphenyl)cinnolin-6-yl]-6-fluorophenol]",< 10 nM,
"Cc1cc(F)cc(-c2cnc3ccc(-c4cc(F)cc(C#N)c4O)cc3c2N2CC[C@H](N)[C@H](O)C2)c1 (relative stereo) [2-219, cis-3-{4-[4-amino-3-hydroxypiperidin-1-yl]-3-(3-fluoro-5-methylphenyl)quinolin-6-yl}-5-fluoro-2-hydroxybenzonitrile]",< 10 nM,
"N#Cc1ccc(NC(=O)NOCC(F)(F)F)c(-c2ccc3ncc(-c4cc(F)cc(F)c4)c(N4CCC(N)CC4)c3c2)c1 [2-238, 1-{2-[4-(4-aminopiperidin-1-yl)-3-(3,5-difluorophenyl)quinolin-6-yl]-4-cyanophenyl}-3-(2,2,2-trifluoroethoxy)urea]",< 10 nM,
"NC1CCN(c2c(-c3cc(F)cc(F)c3)cnc3ccc(-c4cncc(F)c4OC4COC4)cc23)CC1 [2-74, 1-[3-(3,5-difluorophenyl)-6-[5-fluoro-4-(oxetan-3-yloxy)pyridin-3-yl]quinolin-4-yl]piperidin-4-amine]",,100 to 1000 nM
"Cc1cc(F)cc(-c2nnc3ccc(-c4ccc5[nH]c(=O)[nH]c5c4)cc3c2N2CCC(N)CC2)c1 [1-16, 5-[4-(4-aminopiperidin-1-yl)-3-(3-fluoro-5-methylphenyl)cinnolin-6-yl]-2,3-dihydro-1H-1,3-benzodiazol-2-one]",< 10 nM,
"N#Cc1cc(F)c(F)c(-c2ccc3ncc(-c4cc(F)cc(F)c4)c(N4CCC(N)CC4)c3c2)c1O [2-99, 3-[4-(4-aminopiperidin-1-yl)-3-(3,5-difluorophenyl)quinolin-6-yl]-4,5-difluoro-2-hydroxybenzonitrile]",< 10 nM,
"NC1CCN(c2c(-c3cc(F)cc(F)c3)cnc3ccc(-c4cccnc4C=NO)cc23)CC1 [2-196, 1-[3-(3,5-difluorophenyl)-6-{2-[(hydroxyimino)methyl]pyridin-3-yl}quinolin-4-yl]piperidin-4-amine]",< 10 nM,
"Oc1cccnc1-c1ccc2ncc(-c3cc(F)cc(F)c3)c(N3CC[C@H]4NCCO[C@@H]4C3)c2c1 (relative stereo) [2-263, 2-{4-[trans-octahydro-1H-pyrido[3,4-b]morpholin-6-yl]-3-(3,5-difluorophenyl)quinolin-6-yl}pyridin-3-ol]",< 10 nM,
"COCCOc1c(C#N)cccc1-c1ccc2ncc(-c3cc(F)cc(F)c3)c(N3CCC(N)CC3)c2c1 [2-72, 3-[4-(4-aminopiperidin-1-yl)-3-(3,5-difluorophenyl)quinolin-6-yl]-2-(2-methoxyethoxy)benzonitrile]",< 10 nM,
"Cc1cc(F)cc(-c2cnc3ccc(-c4cc(F)cc(C#N)c4O)cc3c2N2CC(CNCCCF)C2)c1 [2-28, 5-fluoro-3-[3-(3-fluoro-5-methylphenyl)-4-(3-{[(3-fluoropropyl)amino]methyl}azetidin-1-yl)quinolin-6-yl]-2-hydroxybenzonitrile]",< 10 nM,
"Cc1cc(F)cc(-c2cnc3ccc(-c4cncc(Cl)c4N)cc3c2N2CCC(N)CC2)c1 [2-181, 3-[4-(4-aminopiperidin-1-yl)-3-(3-fluoro-5-methylphenyl)quinolin-6-yl]-5-chloropyridin-4-amine]",< 10 nM,
"N#Cc1cccc(-c2ccc3ncc(-c4cc(F)cc(F)c4)c(N4CC[C@@H](N)[C@H](C(N)=O)C4)c3c2)c1O (relative stereo) [2-146, trans-4-Amino-1-[6-(3-cyano-2-hydroxyphenyl)-3-(3,5-difluorophenyl)quinolin-4-yl]piperidine-3-carboxamide]",> 1000 nM,
"NC(=O)c1cc(F)cc(-c2ccc3nnc(-c4cc(F)cc(F)c4)c(N4CCC(N)CC4)c3c2)c1 [1-14, 3-[4-(4-aminopiperidin-1-yl)-3-(3,5-difluorophenyl)cinnolin-6-yl]-5-fluorobenzamide]",< 10 nM,
"CONC(=O)Nc1nccc(C)c1-c1ccc2ncc(-c3cc(C)cc(F)c3)c(N3CCC(N)CC3)c2c1 [2-215, 1-{3-[4-(4-aminopiperidin-1-yl)-3-(3-fluoro-5-methylphenyl)quinolin-6-yl]-4-methylpyridin-2-yl}-3-methoxyurea]",,10 to 100 nM
"COC(=O)Nc1c(F)cc(F)cc1-c1ccc2ncc(-c3cc(C)cc(F)c3)c(N3CCC(N)CC3)c2c1 [2-197, methyl N-{2-[4-(4-aminopiperidin-1-yl)-3-(3-fluoro-5-methylphenyl)quinolin-6-yl]-4,6-difluorophenyl}carbamate]",< 10 nM,
"NC(=O)c1cc(F)cc(-c2ccc3nnc(-c4cc(Cl)cc(Cl)c4)c(N4CCC(NC5COC5)CC4)c3c2)c1 [1-31, 3-[3-(3,5-dichlorophenyl)-4-{4-[(oxetan-3-yl)amino]piperidin-1-yl}cinnolin-6-yl]-5-fluorobenzamide]",< 10 nM,
"CON=Cc1cc(-c2ccc3ncc(-c4cc(C)cc(F)c4)c(N4CCC(N)CC4)c3c2)ccc1O [2-213, 4-[4-(4-aminopiperidin-1-yl)-3-(3-fluoro-5-methylphenyl)quinolin-6-yl]-2-[(methoxyimino)methyl]phenol]",,10 to 100 nM
"Cc1cc(F)cc(-c2nnc3ccc(-c4cccc(C#N)c4O)cc3c2N2CCC(N)CC2)c1 [1-17, 3-[4-(4-aminopiperidin-1-yl)-3-(3-fluoro-5-methylphenyl)cinnolin-6-yl]-2-hydroxybenzonitrile]",< 10 nM,
"CON(C)C(=O)Nc1c(F)cccc1-c1ccc2ncc(-c3cc(C)cc(F)c3)c(N3CCC(N)CC3)c2c1 [2-210, 1-{2-[4-(4-aminopiperidin-1-yl)-3-(3-fluoro-5-methylphenyl)quinolin-6-yl]-6-fluorophenyl}-3-methoxy-3-methylurea]",< 10 nM,
"Cc1cc(Cl)cc(-c2cnc3ccc(-c4cc(F)cc(C#N)c4O)cc3c2N2CC(CN)C2)c1 [2-22, 3-{4-[3-(aminomethyl)azetidin-1-yl]-3-(3-chloro-5-methylphenyl)quinolin-6-yl}-5-fluoro-2-hydroxybenzonitrile]",,10 to 100 nM
"COCCOc1c(C#N)cc(F)cc1-c1ccc2ncc(-c3cc(C)cc(F)c3)c(N3CC[C@H](N)[C@H](O)C3)c2c1 (relative stereo) [2-220, cis-3-{4-[4-amino-3-hydroxypiperidin-1-yl]-3-(3-fluoro-5-methylphenyl)quinolin-6-yl}-5-fluoro-2-(2-methoxyethoxy)benzonitrile]",< 10 nM,
"NC(=O)c1cc(F)cc(-c2ccc3nnc(-c4cc(Cl)cc(Cl)c4)c(N4CCC(NCCC(F)(F)F)CC4)c3c2)c1 [1-32, 3-[3-(3,5-dichlorophenyl)-4-{4-[(3,3,3-trifluoropropyl)amino]piperidin-1-yl}cinnolin-6-yl]-5-fluorobenzamide]",< 10 nM,
"Cc1cc(F)cc(-c2cnc3ccc(-c4cccc(C(=O)N5CCC5)c4O)cc3c2N2CCC(N)CC2)c1 [2-88, 2-[4-(4-aminopiperidin-1-yl)-3-(3-fluoro-5-methylphenyl)quinolin-6-yl] 6-(azetidine-1-carbonyl)phenol]",,10 to 100 nM
"N#Cc1cc(F)c(F)c(-c2ccc3ncc(-c4cc(F)cc(F)c4)c(N4CCC(N)CC4)c3c2)c1N [2-179, 2-amino-3-[4-(4-aminopiperidin-1-yl)-3-(3,5-difluorophenyl)quinolin-6-yl]-4,5-difluorobenzonitrile]",< 10 nM,
